ChEMBL document CHEMBL3244367, “Synthesis and determination of antiviral activity of the 2'(3')-O-methyl derivatives of ribavirin (1-beta-D-ribofuranosyl-1,2,4-triazole-3-carboxamide)” (1977)
In brackets after ≈: the same amount, converted by molar mass.

System: Vaccinia virus
Assay: Antiviral activity against Vaccinia virus infected in primary rabbit kidney cells assessed as inhibition of virus-induced cytopathogenicity treated immediately after virus adsorption measured 2 days after virus infection
Assay type: functional
Conditions: Orthopoxvirus vaccinia, 48 h

Compound | MIC50
NC(=O)c1ncn([C@@H]2O[C@H](CO)[C@@H](O)[C@H]2O)n1 [RIBAVIRIN] | 20 µg/mL (≈ 81.9 µM)
CO[C@H]1[C@@H](O)[C@H](n2cnc(C(N)=O)n2)O[C@@H]1CO | > 200 µg/mL
CO[C@@H]1[C@H](O)[C@@H](CO)O[C@H]1n1cnc(C(N)=O)n1 | > 200 µg/mL
